ChEMBL document CHEMBL3865823, “Ameliorative effects of amide derivatives of 1,3,4-thiadiazoles on scopolamine induced cognitive dysfunction” (Eur J Med Chem, 2016)
pIC50, pKi: −log10 of the molar value.

How the values were obtained:
[1] = biological target: T1, Acetylcholinesterase (Mus musculus, UniProt P21836); assay: Competitive inhibition of albino mouse brain AChE using acetylthiocholine iodide as substrate measured up to 2 mins by Ellmans method
T1 sequence (P21836 whole entry): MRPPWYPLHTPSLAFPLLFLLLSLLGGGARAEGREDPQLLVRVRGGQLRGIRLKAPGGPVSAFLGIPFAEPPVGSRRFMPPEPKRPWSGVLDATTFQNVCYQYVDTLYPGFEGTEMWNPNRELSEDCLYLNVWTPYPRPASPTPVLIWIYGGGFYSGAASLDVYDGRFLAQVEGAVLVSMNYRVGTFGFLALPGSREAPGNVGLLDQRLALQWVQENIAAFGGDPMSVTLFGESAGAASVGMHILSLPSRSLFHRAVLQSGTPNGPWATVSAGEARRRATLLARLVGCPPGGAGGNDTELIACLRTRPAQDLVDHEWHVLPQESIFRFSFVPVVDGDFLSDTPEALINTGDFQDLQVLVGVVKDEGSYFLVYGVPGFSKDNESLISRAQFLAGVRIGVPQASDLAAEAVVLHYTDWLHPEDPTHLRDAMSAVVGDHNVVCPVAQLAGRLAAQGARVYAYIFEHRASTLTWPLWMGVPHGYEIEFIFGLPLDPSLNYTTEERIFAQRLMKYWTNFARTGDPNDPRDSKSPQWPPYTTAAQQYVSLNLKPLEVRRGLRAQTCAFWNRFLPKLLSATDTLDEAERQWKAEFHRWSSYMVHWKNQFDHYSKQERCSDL

[2] = system: Mus musculus; assay: Antiamnesic activity against scopolamine-induced memory loss in albino mouse assessed as latency to reach shock free zone at 0.5 mg/kg, ip administered 5 mins post scopolamine-challenge and 35 mins prior to training by passive avoidance test (reference value: 53.25 +/- 1.37 sec); assay type: functional
[3] = system: Mus musculus; assay: Inhibition of scopolamine-induced increase in AchE level in albino mouse assessed as AChE level in brain at 0.5 mg/kg, ip administered 5 mins post scopolamine-challenge using acetlythiocholine iodidie as substrate by Ellman's method (reference value: 0.011 +/- 0.0022 umol/min/mg); assay type: functional
[4] = system: Mus musculus; assay: Antiamnesic activity against scopolamine-induced memory loss in albino mouse assessed as escape latency time at 0.5 mg/kg, ip administered 5 mins post scopolamine-challenge and 35 mins prior to training measured on day 2 by Morris water maze test (reference value: 89.41 +/- 0.39 sec); assay type: functional
[5] = system: Mus musculus; assay: Neuroprotective activity against scopolamine-induced oxidative damage in albino mouse assessed as glutathione reductase level in brain measured per mg of protein at 0.5 mg/kg, ip administered 5 mins post scopolamine-challenge by Ellamns assay (reference value: 0.008 +/- 0.001 umol); assay type: functional
[6] = system: Mus musculus; assay: Neuroprotective activity against scopolamine-induced oxidative damage in albino mouse assessed as catalase activity by measuring H2O2 decomposition per mg of protein at 0.5 mg/kg, ip administered 5 mins post scopolamine-challenge (reference value: 1.37 +/- 0.25 micromol/min); assay type: functional
[7] = system: Mus musculus; assay: Antiamnesic activity against scopolamine-induced memory loss in albino mouse assessed as escape latency time at 0.5 mg/kg, ip administered 5 mins post scopolamine-challenge and 35 mins prior to training measured on day 1 by Morris water maze test (reference value: 89.67 +/- 0.23 sec); assay type: functional
[8] = system: Mus musculus; assay: Neuroprotective activity against scopolamine-induced oxidative damage in albino mouse assessed as superoxide dismutase level in brain at 0.5 mg/kg, ip administered 5 mins post scopolamine-challenge measured at every 30 to 60 secs interval for 2 mins by NBT reduction assay (reference value: 0.17 +/- 0.03 U/mg); assay type: functional
[9] = system: Mus musculus; assay: Antiamnesic activity against scopolamine-induced memory loss in albino mouse assessed as number of mistakes at 0.5 mg/kg, ip administered 5 mins post scopolamine-challenge and 35 mins prior to training by passive avoidance test (reference value: 12.25 +/- 0.47); assay type: functional
[10] = system: Mus musculus; assay: Neuroprotective activity against scopolamine-induced oxidative damage in albino mouse assessed as lipid peroxidation in brain by measuring MDA level per mg protein at 0.5 mg/kg, ip administered 5 mins post scopolamine-challenge by TBARS assay (reference value: 2.73 +/- 0.36 mol); assay type: functional
[11] = system: Mus musculus; assay: Antiamnesic activity against scopolamine-induced memory loss in albino mouse assessed as basal latency to reach shock free zone at 0.5 mg/kg, ip administered 5 mins post scopolamine-challengen and 35 mins prior to training by passive avoidance test (reference value: 40.25 +/- 2.84 sec); assay type: functional
[12] = system: Mus musculus; assay: Antiamnesic activity against scopolamine-induced memory loss in albino mouse assessed as escape latency time at 0.5 mg/kg, ip administered 5 mins post scopolamine-challenge and 35 mins prior to training measured on day 4 by Morris water maze test (reference value: 87.17 +/- 1.03 sec); assay type: functional
[13] = biological target: T1, Acetylcholinesterase; assay: Inhibition of albino mouse brain AChE using acetylthiocholine iodide as substrate measured for 2 mins by Ellmans method; assay type: tissue-based
[14] = system: Mus musculus; assay: Neuroprotective activity against scopolamine-induced oxidative damage in albino mouse assessed as nitrite level in plasma at 0.5 mg/kg, ip administered 5 mins post scopolamine-challenge by Greiss assay (reference value: 483.5 +/- 27.1 ug/ml); assay type: functional
[15] = system: Mus musculus; assay: Antiamnesic activity against scopolamine-induced memory loss in albino mouse assessed as escape latency time at 0.5 mg/kg, ip administered 5 mins post scopolamine-challenge and 35 mins prior to training measured on day 3 by Morris water maze test (reference value: 88.33 +/- 0.95 sec); assay type: functional
[16] = system: Mus musculus; assay: Antiamnesic activity against scopolamine-induced memory loss in albino mouse assessed as time spent in target quadrant at 0.5 mg/kg, ip administered 5 mins post scopolamine-challenge and 35 mins prior to training measured on day 5 by Morris water maze test (reference value: 4 +/- 1.15 sec); assay type: functional
[17] = system: Mus musculus; assay: Antiamnesic activity against scopolamine-induced memory loss in albino mouse assessed as escape latency time at 0.5 mg/kg, ip administered 5 mins post scopolamine-challenge and 35 mins prior to training measured on day 5 by Morris water maze test (reference value: 84.92 +/- 1.64 sec); assay type: functional
[18] = biological target: T1, Acetylcholinesterase; assay: Uncompetitive inhibition of albino mouse brain AChE using acetylthiocholine iodide as substrate measured up to 2 mins by Ellmans method

SMILES | pKi [1] | Time [2] | Activity [3] | Time [4] | Activity [5] | Activity [6] | Time [7] | Activity [8] | Activity [9] | Activity [10] | Time [11] | Time [12] | pIC50 [13] | Activity [14] | Time [15] | Time [16] | Time [17] | pKi [18]
O=C(Nc1nnc(-c2ccccc2Cl)s1)c1cc(C(F)(F)F)cc(C(F)(F)F)c1 | 6.01 | 4.5 s | 0.002 µmol/min/mg | 84.25 s | 0.016 µmol | 2.79 µmol/min | 89.75 s | 5.87 U/mg | 3 | 0.73 nmol | 30.75 s | 52.92 s | 5.56 | 291.8 µg/mL | 73.75 s | 25.33 s | 21.67 s | –
O=C(Nc1nnc(-c2ccccc2)s1)c1cccc(CCl)c1 | – | – | 0.004 µmol/min/mg | – | 0.012 µmol | 2.67 µmol/min | – | 5.95 U/mg | – | 0.67 nmol | – | – | 5.39 | 268.5 µg/mL | – | – | – | 6.07
Cc1ccc(-c2nnc(NC(=O)c3cc(C(F)(F)F)cc(C(F)(F)F)c3)s2)cc1 | – | – | 0.003 µmol/min/mg | – | 0.012 µmol | 2.69 µmol/min | – | 5.23 U/mg | – | 1.09 nmol | – | – | 5.15 | 306.5 µg/mL | – | – | – | 5.42
CC(=O)Oc1cccc(C(=O)Nc2nnc(-c3ccccc3Cl)s2)c1 | – | 4.5 s | 0.004 µmol/min/mg | 77.83 s | 0.013 µmol | 2.66 µmol/min | 88.42 s | 5.29 U/mg | 4.25 | 0.76 nmol | 36.33 s | 46.83 s | 5.52 | 265.5 µg/mL | 62.33 s | 23.33 s | 23.92 s | 6.19
O=C(Nc1nnc(-c2ccccc2Cl)s1)c1cccc(CCl)c1 | – | 5.25 s | 0.003 µmol/min/mg | 76.08 s | 0.01 µmol | 1.9 µmol/min | 85.92 s | 5.95 U/mg | 4.5 | 0.76 nmol | 34.58 s | 44.75 s | 5.52 | 308.8 µg/mL | 62.92 s | 24.33 s | 22.5 s | 6.18
CC(CC(=O)Nc1nnc(Cc2ccccc2)s1)CC(C)(C)C (stereo unspecified) | – | – | – | – | – | – | – | – | – | – | – | – | 4.57 | – | – | – | – | 5.40
Cc1ccc(-c2nnc(NC(=O)c3cccc(CCl)c3)s2)cc1 | 5.42 | – | – | – | – | – | – | – | – | – | – | – | 4.90 | – | – | – | – | –
O=C(Nc1nnc(Cc2ccccc2)s1)c1cccc(CCl)c1 | – | – | 0.003 µmol/min/mg | – | 0.01 µmol | 1.74 µmol/min | – | 5.26 U/mg | – | 0.98 nmol | – | – | 4.69 | 324.8 µg/mL | – | – | – | 5.30
CC(CC(=O)Nc1nnc(-c2cccc(Cl)c2)s1)CC(C)(C)C (stereo unspecified) | – | – | – | – | – | – | – | – | – | – | – | – | 4.86 | – | – | – | – | 5.57
CC(=O)Oc1cccc(C(=O)Nc2nnc(-c3ccccc3)s2)c1 | 6.04 | – | – | – | – | – | – | – | – | – | – | – | 5.42 | – | – | – | – | –
CC(=O)Oc1cccc(C(=O)Nc2nnc(Cc3ccccc3)s2)c1 | – | – | – | – | – | – | – | – | – | – | – | – | 4.94 | – | – | – | – | 5.25
Cc1ccc(-c2nnc(NC(=O)CC(C)CC(C)(C)C)s2)cc1 (stereo unspecified) | – | – | – | – | – | – | – | – | – | – | – | – | 4.63 | – | – | – | – | 5.08
CC(=O)Oc1cccc(C(=O)Nc2nnc(-c3ccc(C)cc3)s2)c1 | – | – | – | – | – | – | – | – | – | – | – | – | 4.97 | – | – | – | – | 5.42
CC(CC(=O)Nc1nnc(-c2ccccc2)s1)CC(C)(C)C (stereo unspecified) | – | – | – | – | – | – | – | – | – | – | – | – | 4.63 | – | – | – | – | 5.12
CCN(C)C(=O)Oc1cccc([C@H](C)N(C)C)c1 [RIVASTIGMINE] | – | 12.25 s | 0.005 µmol/min/mg | 83.83 s | 0.014 µmol | 1.88 µmol/min | 89.75 s | 4.24 U/mg | 8.75 | 2.34 nmol | 37.08 s | 54.58 s | – | 418.2 µg/mL | 72.92 s | 15 s | 34.08 s | –
